# Tests used:
# [1] = tested on: phospho-ERK1/2 (Thr202/Tyr204); experiment: Phospho-ERK cellular assay; type: cell-based; settings: Homo sapiens; KYSE-520 cells, 2 h at 37° C, TR-FRET; read-out: pERK IC50
# Experimental: ERK phosphorylation was detected using the “Advanced phospho-ERK1/2 (Thr202/Tyr204)” TR-FRET kit (Cisbio, Cat #64AERPEG/H), following the manufacturer reagents and instructions.
# Briefly, 20.000/well KYSE-520 cells (DSMZ ACC 371) were plated in 6 μL RPMI-1640 (Invitrogen) growth medium, into 384 white low-volume high base TC microplates (Greiner). After an overnight incubation, cells were treated with DMSO serial diluted compounds and incubated for 2 h at 37° C. After incubation, 2 μL/well of 4×Lysis Buffer (Cisbio 64KL1FDF), were added and incubated with cells for 30 min on gentle shaking. Finally, lysates were added with 2 μL/well of Eu cryptate (donor) and D2 (acceptor) conjugated antibodies (as provided by the Cisbio kit #64AERPEG/H) diluted 1:100 in Detection Buffer (as provided by the Cisbio kit #64AERPEG/H). Plates were then sealed and incubated at rt in the dark. After an overnight incubation, the TR-FRET signal was detected on a suitable reader (Envision, PerkinElmer).
# The lower the TR-FRET signal the higher the higher the SHP2 inhibition in cells.
# The activity of each compound dilution was calculated as percentage between vehicle DMSO treated cells and no cells, 0% inhibition and 100% inhibition respectively. The percentage activity is fitted against the compound dilutions with a four-parameter logistic regression. The inflection point (i.e. the concentration at which half-maximal inhibition is achieved) is the IC50.
# Legend: “+” indicates IC50 equal or higher than 0.5 μM; “++” indicates IC50 less than 0.5 μM and higher or equal to 0.1 μM; “+++” indicates IC50 less than 0.1 μM.
# [2] = biological target: T1, SHP-2 enzyme (Met1-Leu525), SHP2wt (Homo sapiens, UniProt Q06124); experiment: SHP2 inhibition enzymatic assay; type: biochemical; settings: 0.5 nM SHP-2 activated by 500 nM IRS1 peptide, 75 μM DiFMUP substrate
# T1 construct: synthetized by Origene, Met1-Leu525, cat #TP750155; purchased Origene TP750155
# T1 sequence (Q06124 1-525): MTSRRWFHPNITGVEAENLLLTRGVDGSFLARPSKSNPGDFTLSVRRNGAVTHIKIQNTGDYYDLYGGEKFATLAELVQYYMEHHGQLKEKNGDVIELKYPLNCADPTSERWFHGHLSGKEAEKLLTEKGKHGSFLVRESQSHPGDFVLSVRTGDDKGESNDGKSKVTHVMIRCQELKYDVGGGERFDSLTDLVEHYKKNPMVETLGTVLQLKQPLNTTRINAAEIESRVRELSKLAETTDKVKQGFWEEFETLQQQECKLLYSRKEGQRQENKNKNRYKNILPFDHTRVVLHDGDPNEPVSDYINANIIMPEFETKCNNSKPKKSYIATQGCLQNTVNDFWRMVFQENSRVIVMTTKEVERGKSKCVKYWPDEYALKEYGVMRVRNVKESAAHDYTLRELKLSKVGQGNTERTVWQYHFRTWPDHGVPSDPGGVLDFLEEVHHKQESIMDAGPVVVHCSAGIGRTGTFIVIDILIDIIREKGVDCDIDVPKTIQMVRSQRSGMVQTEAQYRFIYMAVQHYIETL
# Experimental: The assay was performed as described in YP Chen et al, Nature (535) 2016. Assay volume of 20 μL/well was assembled in 384 well black polystyrene low-binding microplates (Greiner), using the following buffer: 60 mM HEPES pH 7.2, 75 mM NaCl, 75 mM KCl, 1 mM EDTA pH 8, 0.05% tween-20, 5 mM DTT. The SHP-2 enzyme (synthetized by Origene, Met1-Leu525, cat #TP750155) was used at a final concentration of 0.5 nM. The enzyme was activated by 500 nM IRS1 peptide (sequence: H2N-LN(pY)IDLDLV(dPEG8)LST(pY)ASINFQK-amide; Wang et al., iScience 25,104009, Apr. 15, 2022, https://doi.org/10.1016/j.isci.2022.104009) and incubated with 75 μM DiFMUP (Sigma) as substrate.
# Briefly, DMSO serially diluted testing compounds were transferred to the bottom of the assay plate. SHP2 was then added together with the IRS1 peptide 30 min post incubation, the DiFMUP substrate was added to the reaction and incubated 30 min at rt. Finally 5 μL of 160 μM bpV (potassium bisperoxo[1,10-phenanthroline]oxovanadate [V], Sigma) were added to stop and quench the reaction. The fluorescence was detected by a microplate reader (Envision, PerkinElmer) according to the DiFMUP excitation and emission wavelength. The lower the fluorescence the higher the SHP2 inhibition.
# The activity of each compound dilution was calculated as percentage of inhibition between vehicle (DMSO, 0% inhibition) and no enzyme (100% inhibition). The percentage inhibition is fitted against the compound dilutions with a four-parameter logistic regression. The inflection point (i.e. the concentration at which half-maximal inhibition is achieved) is the IC50.
# Legend: A indicates IC50 less or equal to 0.05 μM; B indicates IC50 greater than 0.05 μM and lower or equal to 0.3 μM.
Compound,IC50 [1],IC50 [2]
"N[C@@H]1c2ccnn2CC12CCN(c1cnc(Sc3cccc(C4CC4)c3F)cn1)CC2 [Example 69, (S)-1-(5-((3-cyclopropyl-2-fluorophenyl)thio)pyrazin-2-yl)-4′H,6′H-spiro[piperidine-4,5′-pyrrolo[1,2-b]pyrazol]-4′-amine]",< 100 nM,≤ 50 nM
"Cc1c(Cl)cncc1Sc1cnc(N2CCC3(CC2)Cn2nccc2[C@H]3N)cn1 [Example 62, (S)-1-(5-((5-chloro-4-methylpyridin-3-yl)thio)pyrazin-2-yl)-4′H,6′H-spiro[piperidine-4,5′-pyrrolo[1,2-b]pyrazol]-4′-amine]",100 to 500 nM,≤ 50 nM
"N[C@@H]1c2ccnn2CC12CCN(c1cnc(Sc3cc(F)ccc3F)cn1)CC2 [Example 48, (S)-1-(5-((2,5-difluorophenyl)thio)pyrazin-2-yl)-4′H,6′H-spiro[piperidine-4,5′-pyrrolo[1,2-b]pyrazol]-4′-amine]",< 100 nM,≤ 50 nM
"N[C@@H]1c2ccnn2CC12CCN(c1cnc(Oc3ccc(F)cc3)cn1)CC2 [Example 7, (S)-1-(5-(4-fluorophenoxy)pyrazin-2-yl)-4′H,6′H-spiro[piperidine-4,5′-pyrrolo[1,2-b]pyrazol]-4′-amine]",< 100 nM,≤ 50 nM
"Cn1cc2ccc(Sc3cnc(N4CCC5(CC4)Cn4nccc4[C@H]5N)cn3)c(F)c2n1 [Example 83, (S)-1-(5-((7-fluoro-2-methyl-2H-indazol-6-yl)thio)pyrazin-2-yl)-4′H,6′H-spiro[piperidine-4,5′-pyrrolo[1,2-b]pyrazol]-4′-amine]",< 100 nM,≤ 50 nM
"N#Cc1cccc(Sc2cnc(N3CCC4(CC3)Cn3nccc3[C@H]4N)cn2)c1C(F)(F)F [Example 43, (S)-3-((5-(4′-amino-4′H,6′H-spiro[piperidine-4,5′-pyrrolo[1,2-b]pyrazol]-1-yl)pyrazin-2-yl)thio)-2-(trifluoromethyl)benzonitrile]",< 100 nM,≤ 50 nM
"N[C@@H]1c2ccnn2CC12CCN(c1cnc(Sc3ccc(F)c(F)c3F)cn1)CC2 [Example 49, (S)-1-(5-((2,3,4-trifluorophenyl)thio)pyrazin-2-yl)-4′H,6′H-spiro[piperidine-4,5′-pyrrolo[1,2-b]pyrazol]-4′-amine]",< 100 nM,≤ 50 nM
"N[C@@H]1c2ccnn2CC12CCN(c1cnc(Sc3cc(F)cc(F)c3)cn1)CC2 [Example 50, (S)-1-(5-((3,5-difluorophenyl)thio)pyrazin-2-yl)-4′H,6′H-spiro[piperidine-4,5′-pyrrolo[1,2-b]pyrazol]-4′-amine]",< 100 nM,≤ 50 nM
"N[C@@H]1c2ccnn2CC12CCN(c1cnc(Sc3ccc(OC(F)F)c4ncccc34)cn1)CC2 [Example 73, (S)-1-(5-((8-(difluoromethoxy)quinolin-5-yl)thio)pyrazin-2-yl)-4′H,6′H-spiro[piperidine-4,5′-pyrrolo[1,2-b]pyrazol]-4′-amine]",< 100 nM,≤ 50 nM
"Cc1cccc(Sc2cnc(N3CCC4(CC3)Cn3nccc3[C@H]4N)cn2)c1C [Example 47, (S)-1-(5-((2,3-dimethylphenyl)thio)pyrazin-2-yl)-4′H,6′H-spiro[piperidine-4,5′-pyrrolo[1,2-b]pyrazol]-4′-amine]",< 100 nM,≤ 50 nM
"N[C@@H]1c2ccnn2CC12CCN(c1cnc(Sc3cccc(-n4ccnc4C(F)F)c3Cl)cn1)CC2 [Example 82, (S)-1-(5-((2-chloro-3-(2-(difluoromethyl)-1H-imidazol-1-yl)phenyl)thio)pyrazin-2-yl)-4′H,6′H-spiro[piperidine-4,5′-pyrrolo[1,2-b]pyrazol]-4′-amine]",< 100 nM,≤ 50 nM
"N[C@@H]1c2ccnn2CC12CCN(c1cnc3nc(-c4cccc(Cl)c4Cl)ccc3n1)CC2 [Example 9, (S)-1-(6-(2,3-dichlorophenyl)pyrido[2,3-b]pyrazin-2-yl)-4′H,6′H-spiro[piperidine-4,5′-pyrrolo[1,2-b]pyrazol]-4′-amine]",> 500 nM,≤ 50 nM
"Cc1ccc(F)c(-c2ncc3c(N4CCC5(CC4)Cn4nccc4[C@H]5N)nccn23)c1Cl [Example 16, (S)-1-(3-(2-chloro-6-fluoro-3-methylphenyl)imidazo[1,5-a]pyrazin-8-yl)-4′H,6′H-spiro[piperidine-4,5′-pyrrolo[1,2-b]pyrazol]-4′-amine]",> 500 nM,50 to 300 nM
"N[C@@H]1c2ccnn2CC12CCN(c1cnc(Sc3ccc(F)cc3)cn1)CC2 [Example 13, (S)-1-(5-((4-fluorophenyl)thio)pyrazin-2-yl)-4′H,6′H-spiro[piperidine-4,5′-pyrrolo[1,2-b]pyrazol]-4′-amine]",< 100 nM,≤ 50 nM
"N[C@@H]1c2ccnn2CC12CCN(c1cnc(Sc3cccc(Cl)c3)cn1)CC2 [Example 20, (S)-1-(5-((3-chlorophenyl)thio)pyrazin-2-yl)-4′H,6′H-spiro[piperidine-4,5′-pyrrolo[1,2-b]pyrazol]-4′-amine]",< 100 nM,≤ 50 nM
"COc1c(F)ccc(Sc2cnc(N3CCC4(CC3)Cn3nccc3[C@H]4N)cn2)c1F [Example 55, (S)-1-(5-((2,4-difluoro-3-methoxyphenyl)thio)pyrazin-2-yl)-4′H,6′H-spiro[piperidine-4,5′-pyrrolo[1,2-b]pyrazol]-4′-amine]",< 100 nM,≤ 50 nM
"N[C@@H]1c2ccnn2CC12CCN(c1cnc(-c3cccc(Cl)c3Cl)cn1)CC2 [Example 31, (S)-1-(5-(2,3-dichlorophenyl)pyrazin-2-yl)-4′H,6′H-spiro[piperidine-4,5′-pyrrolo[1,2-b]pyrazol]-4′-amine]",> 500 nM,≤ 50 nM
"Cc1nc(N2CCC3(CC2)Cn2ncc(F)c2[C@H]3N)cc(=O)n1-c1cccc(Cl)c1Cl (atropisomer, axis not shown) [Example 1, (S)-6-(4′-amino-3′-fluoro-4′H,6′H-spiro[piperidine-4,5′-pyrrolo[1,2-b]pyrazol]-1-yl)-3-(2,3-dichlorophenyl)-2-methylpyrimidin-4(3H)-one]",100 to 500 nM,≤ 50 nM
"N[C@@H]1c2ccnn2CC12CCN(c1cnc(Sc3cccc(F)c3-n3cccn3)cn1)CC2 [Example 80, (S)-1-(5-((3-fluoro-2-(1H-pyrazol-1-yl)phenyl)thio)pyrazin-2-yl)-4′H,6′H-spiro[piperidine-4,5′-pyrrolo[1,2-b]pyrazol]-4′-amine]",100 to 500 nM,≤ 50 nM
"N[C@@H]1c2ccnn2CC12CCN(c1cnc(Sc3cccc(F)c3C(F)F)cn1)CC2 [Example 71, (S)-1-(5-((2-(difluoromethyl)-3-fluorophenyl)thio)pyrazin-2-yl)-4′H,6′H-spiro[piperidine-4,5′-pyrrolo[1,2-b]pyrazol]-4′-amine]",< 100 nM,≤ 50 nM

# Reference: patent US20260109699A1, “AZOLE DERIVATIVES AS SHP2 INHIBITORS” (IRBM S.P.A., priority 2022, published 2026)
